18 compounds from patent US12612403B2, “Nitrogen-containing heterocyclic derivative inhibitor, and preparation method therefor and use thereof” (SHANGHAI HANSOH BIOMEDICAL CO., LTD., priority 2024, dated 2026) can be followed below.

Series [1] has as its target T1, PCSK9 protein (Homo sapiens, UniProt Q8NBP7).
T1 construct: purchased Sino biology (Sino Biological) 29698-H08H
Put plainly: Binding ability to PCSK9 protein (HTRF). The settings on record: PCSK9-His, Alexa Fluor 647 probe compound. Here is the method: 1. Experimental objective: To detect the action of compounds to bind PCSK9 protein by an HTRF method.
3. Experimental data processing method: Four-parameter log(inhibitor) vs. response—Variable slope (four parameters) in XLit was used to perform non-linear fitting of the compound concentration and the corresponding inhibition rate, and IC50 was calculated.
Background: In TR-FRET formats the signal depends on donor and acceptor labels being close together.

Series [2] has as its system PCSK9 secreted by HepG2 cells. Put plainly: Effect on the concentration of PCSK9 secreted by HepG2 cells (ELISA). It counts as cell-based. The settings on record: Homo sapiens, 48 hours, PCSK9 in culture medium by ELISA. Here is the method:
1. Experimental objective: To detect the inhibitory effect of the compounds on PCSK9.
2. Experimental method: • 1) HepG2 cell strain was cultured in the complete culture medium at 37° C., 5% CO2 to 70-90% confluence. • 2) The cells were digested and resuspended in the experimental culture medium, inoculated at 25,000 cells/well/200 μL in a 96-well cell culture plate, and cultured at 37° C. and 5% CO2 for 20-24 hours. • 3) The culture medium was removed from the cell culture plate, and the cell culture plate was washed once by adding 200 ul of the experimental culture medium to each well. • 4) Preparation of positive control compound and compound to be tested: the positive control compound and the compound to be tested were diluted on the compound plate. • 5) The diluted compound was added to the cell culture plate at 250 μL per well and incubated at 37° C. and 5% CO2 for 48 hours. • 6) The cell culture medium was collected at 200 μL per well and cryopreserved at −80° C. for later use. • 7) A sample of the cell culture medium was taken from the −80° C. cryopreservation condition, dissolved, vortexed, and centrifuged for later use. • 8) Preparation of standard curve: corresponding volumes of Dilution buffer were successively added to respective standard tubes, and in the order of the concentrations of 10, 5, 2.5, 1.25, 0.625, 0.313, 0.16, 0 ng/mL, the standard was diluted in series by taking the corresponding volume from the original tube or the last concentration tube. • 9) Preparation of washing liquid: 10x Wash buffer was diluted into 1x with Milli-Q for later use. • 10) According to the standard curve wells and sample wells set according to a plate map, 100 μL/well of the corresponding standards and culture medium samples were added to the wells, with 2 replicate wells. A self-adhesive seal was applied, the plate was placed on a plate shaker at room temperature, gently shaken, uniformly mixed, and incubated for 1 hour. • 11) The plate was placed on the plate washer, the washing liquid was set to 350 μL per well, and the plate was washed 4 times repeatedly. • 12) 100 μL/well of an HRP-conjugated detection antibody was added, a self-adhesive seal was applied, and the plate was placed on the plate shaker, well mixed uniformly, and incubated for 1 hour. • 13) The plate was placed on the plate washer, the washing liquid was set to 350 μL per well, and the plate was washed 4 times repeatedly. • 14) 100 μL/well of Substrate reagent was added, and the plate was placed in the dark, applied with a self-adhesive seal, placed on the plate shaker, well mixed uniformly, and incubated for 10-20 minutes. • 15) 100 μL of Stop solution (1N H2SO4) was added to each well and mixed uniformly. • 16) The optical density (OD) value in each well was measured in sequence at a wavelength of 450 nm by the microplate reader. Detection was carried out within 30 min after the reaction was stopped.
3. Experimental data processing method: After the OD values were read by the microplate reader, the OD value of the 0-concentration standard in the standard group was subtracted from the OD values of the standards, control group, and samples to obtain the actual OD values for these wells. A standard curve was plotted with Graphpad and the concentration of the sample was calculated. If the dilution was performed during the sample detection, the calculated sample concentration was necessarily multiplied by the corresponding dilution ratio in the final calculation, which was the actual concentration of the sample. Inhibition rate=(actual concentration in control−actual concentration in sample)/actual concentration in control*100. According to the inhibition rates corresponding to the different concentrations, IC50 was derived by Graphpad.
For orientation: In an ELISA, binding on a coated surface is turned into a signal by an enzyme label.

Series [3] in a line: Pharmacokinetic determination in mice (PO 5 mg/kg, IV 1 mg/kg). The class given is in vivo, C57BL/6J mice. The note with it: male, C57BL/6J, mouse, plasma, C57 mice, PO administration, 5 mpk; for AUC(0-inf): read-out: Area under the curve AUC0-∞; for half-life: read-out: Half-life t1/2 (converted); for MRT: read-out: Mean residence time MRT; for Cmax: read-out: Plasma concentration Cmax; for Tmax: read-out: Time to peak tmax. Here is the method: 1. Experimental objective: C57BL/6J mice were used as test animals to study the pharmacokinetic behavior of the compounds of the present disclosure in mice (plasma) after oral and intravenous administration.
2.2 Test animals: C57 mice, male, purchased from Shanghai Bk Lab Animal Co., Ltd., with animal production license number (SCXK (Shanghai) 2013-0006 N0.311620400001794).
2.3 Drug preparation: Preparation of oral drug: 10% Solutol HS15
10 g of Solutol HS15 solid was weighed, dissolved in 90 mL of pure water, uniformly mixed, stirred, and ultrasonically treated to form a clear solution. The compound of the present disclosure was weighed and dissolved in this solution, uniformly shaken, and ultrasonically treated for 15 minutes to obtain a colorless clear solution with a concentration of 0.5 mg/mL. Preparation of intravenous drug: 5% DMSO+10% Solutol HS15+85% PBS, the compound of the present disclosure was weighed, 5% DMSO was first added on the basis of the proportion relative to the total volume of administration, and the mixture was vortexed and ultrasonically treated for 2 min until it was completely dissolved; 10% of Solutol HS15 was then added, and the mixture was vortexed and ultrasonically treated for 2 min until it was completely dissolved; and finally, 85% of PBS was added, and the mixture was vortexed, ultrasonically treated for 5 min, and filtered through a 0.22 um filter membrane to obtain a colorless and transparent clear solution with a concentration of 0.2 mg/mL.
2.4 Administration: 3 male C57 mice were fasted overnight and then respectively administered PO at a dose of 5 mg/kg and a volume of 10 mL/kg. 3 male C57 mice were fasted overnight and then respectively administered IV at a dose of 1 mg/kg and a volume of 5 mL/kg.
2.5 Sample collection: Before and after administration of mice, 0.04 mL of blood was collected from the orbit at 0.083 (iv), 0.25, 0.5, 1, 2, 4, 8, and 24 hours, and placed in EDTA-K2 test tubes, which was centrifuged at 6000 rpm at 4° C. for 6 min to separate plasma which was stored at −80° C.; and the […] were fed 4 h after administration.
2.6 Determination results: The final determination results were obtained by using an LCMS/MS method.
3. Experimental results: The main pharmacokinetic parameters were calculated using WinNonlin 6.1.

The term IC50 denotes the point on the concentration scale where inhibition reaches its midpoint. As a reminder, the MRT is a mean duration of stay, worked out from the concentration-time curve. What is called Tmax is the time at which the peak concentration occurs.

T1 sequence (Q8NBP7 153-692): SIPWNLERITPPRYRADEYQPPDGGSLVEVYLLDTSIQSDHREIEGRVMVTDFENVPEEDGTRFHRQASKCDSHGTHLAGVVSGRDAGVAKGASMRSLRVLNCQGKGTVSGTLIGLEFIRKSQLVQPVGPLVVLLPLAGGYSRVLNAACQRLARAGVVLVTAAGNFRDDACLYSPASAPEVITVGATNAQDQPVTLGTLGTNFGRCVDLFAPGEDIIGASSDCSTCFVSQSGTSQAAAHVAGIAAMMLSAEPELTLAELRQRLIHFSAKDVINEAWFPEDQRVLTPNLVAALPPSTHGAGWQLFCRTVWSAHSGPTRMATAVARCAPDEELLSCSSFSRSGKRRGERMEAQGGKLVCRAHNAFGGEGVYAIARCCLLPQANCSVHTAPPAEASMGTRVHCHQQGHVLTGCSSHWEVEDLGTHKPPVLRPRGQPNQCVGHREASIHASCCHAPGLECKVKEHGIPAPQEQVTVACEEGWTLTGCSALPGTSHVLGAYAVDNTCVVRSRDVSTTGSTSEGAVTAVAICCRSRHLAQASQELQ

On to `O=C1c2ccc(C3CC3)nc2CN1c1ccc(N[C@H]2CC[C@H](Nc3nc4cc(C(F)(F)F)ccn4n3)C2)nc1` [Example 68, 2-cyclopropyl-6-(6-(((1S,3S)-3-((7-(trifluoromethyl)-[1,2,4]triazolo[1,5-a]pyridin-2-yl)amino)cyclopentyl)amino)pyridin-3-yl)-6,7-dihydro-5H-pyrrolo[3,4-b]pyridin-5-one], for which the IC50 in series [1] came out at 9.8 nM; in series [2], 2000 nM.
Consider `N#Cc1nccc2c1CN(c1ccc(N[C@H]3CC[C@H](Nc4nc5cc(C(F)(F)F)ccn5n4)C3)nc1)C2=O` [Example 76, 1-carbonyl-2-(6-(((1S,3S)-3-((7-(trifluoromethyl)-[1,2,4]triazolo[1,5-a]pyridin-2-yl)amino)cyclopentyl)amino)pyridin-3-yl)-2,3-dihydro-1H-pyrrolo[3,4-c]pyridine-4-carbonitrile], for which the half-inhibitory concentration (IC50) in series [1] was found to be 13.9 nM; in series [2] it was 4800 nM.
As for `CC(C)(O)c1ccn(-c2ccc(=O)n(-c3ccc(N[C@H]4CC[C@H](Nc5nc6cc(C(F)(F)F)ccn6n5)C4)nc3)c2)n1` [Example 79, 5-(3-(2-hydroxypropan-2-yl)-1H-pyrazol-1-yl)-6′-(((1S,3S)-3-((7-(trifluoromethyl)-[1,2,4]triazolo[1,5-a]pyridin-2-yl)amino)cyclopentyl)amino)-2H-[1,3′-bipyridine]-2-one], the IC50 in series [1] came out at 24.9 nM; in series [2] it was 15100 nM.
For `Cc1ccc2c(c1)C(=O)N(c1ccc(N[C@H]3CC[C@H](Nc4nc5cc(C(F)(F)F)ccn5n4)C3)nc1)C2` [Example 82, 6-methyl-2-(6-(((1S,3S)-3-((7-(trifluoromethyl)-[1,2,4]triazolo[1,5-a]pyridin-2-yl)amino)cyclopentyl)amino)pyridin-3-yl)isoindolin-1-one], in that order: 11.8 nM and 800 nM.
On the same counts, the results for `O=C1c2cc(F)ccc2CN1c1ccc(N[C@H]2CC[C@H](Nc3nc4cc(C(F)(F)F)ccn4n3)C2)nc1` [Example 83, 6-fluoro-2-(6-(((1S,3S)-3-((7-(trifluoromethyl)-[1,2,4]triazolo[1,5-a]pyridin-2-yl)amino)cyclopentyl)amino)pyridin-3-yl)isoindolin-1-one] are 11.5 nM and 1100 nM.
For `O=C1c2ccccc2CN1c1ccc(N[C@H]2CC[C@H](Nc3nc4cc(C(F)(F)F)ccn4n3)C2)nc1` [Example 84, 2-(6-(((1S,3S)-3-((7-(trifluoromethyl)-[1,2,4]triazolo[1,5-a]pyridin-2-yl)amino)cyclopentyl)amino)pyridin-3-yl)isoindolin-1-one], in that order: 6.3 nM and 4700 nM.
As for `Cc1ccc2c(n1)C(=O)N(c1ccc(N[C@H]3CC[C@H](Nc4nc5cc(C(F)(F)F)ccn5n4)C3)nc1)C2` [Example 91, 2-methyl-6-(6-(((1S,3S)-3-((7-(trifluoromethyl)-[1,2,4]triazolo[1,5-a]pyridin-2-yl)amino)cyclopentyl)amino)pyridin-3-yl)-5,6-dihydro-7H-pyrrolo[3,4-b]pyridin-7-one], the IC50 in series [1] was determined as 10.4 nM; in series [2] it was 12900 nM.
For `Cc1cnc2c(c1)CN(c1ccc(N[C@H]3CC[C@H](Nc4nc5cc(C(F)(F)F)ccn5n4)C3)nc1)C2=O` [Example 94], in that order: 9.5 nM and 20500 nM.
`Cc1cc2c(cn1)CN(c1ccc(N[C@H]3CC[C@H](Nc4nc5cc(OC(F)F)ccn5n4)C3)nc1)C2=O` [Example 99]: in series [2], half-maximal inhibition (IC50) required 6600 nM. In series [3], the AUC(0-inf) stood at 27900 ng·h/mL, the half-life is 2.7 h, the MRT turned out to be 3.4 h and the Cmax amounted to 7240 ng/mL. Further, the Tmax in series [3] was found to be 0.25 h.
Turning to `Cc1cn(-c2ccc(N[C@H]3CC[C@H](Nc4nc5cc(C(F)(F)F)ccn5n4)C3)nc2)c(=O)nc1N` [Example 109], the IC50 was 16.1 nM in series [1] and 19600 nM in series [2].
For `Cc1cn(-c2ccc(N[C@H]3CC[C@H](Nc4nc5cc(C(F)(F)F)ccn5n4)C3)nc2)c(=O)nc1O` [Example 111], in that order: 16.2 nM and 11200 nM.
For `Cc1cnc2c(c1)C(=O)N(c1ccc(N[C@H]3CC[C@H](Nc4nc5cc(C(F)(F)F)ccn5n4)C3)nc1)C2` [Example 115], in that order: 9.9 nM and 2600 nM.
With `O=C1c2cc(Cl)cnc2CN1c1ccc(N[C@H]2CC[C@H](Nc3nc4cc(C(F)(F)F)ccn4n3)C2)nc1` [Example 116], the IC50 in series [1] amounted to 16.4 nM; in series [2], 500 nM.
For the compound `O=C1c2ccc(Cl)cc2CN1c1ccc(N[C@H]2CC[C@H](Nc3nc4cc(C(F)(F)F)ccn4n3)C2)nc1` [Example 117], the IC50 in series [1] amounted to 18.3 nM; in series [2], 400 nM.
`O=C1c2cc(Cl)cnc2CN1c1ccc(N[C@H]2CC[C@H](Nc3nc4cc(OC(F)F)ccn4n3)C2)nc1` [Example 130] registered a concentration for half-maximal inhibition (IC50) in series [2] of 1500 nM. In series [3], the AUC(0-inf) is 57900 ng·h/mL, the half-life is 3.6 h, the MRT amounted to 6.1 h and the Cmax was determined as 5090 ng/mL. In addition, in series [3], the Tmax turned out to be 1 h.
Regarding `N#Cc1cnc2c(c1)C(=O)N(c1cnc(N[C@H]3CC[C@H](Nc4nc5cc(C(F)(F)F)ccn5n4)C3)c(F)c1)C2` [Example 147], the IC50 amounted to 8.8 nM in series [1] and 300 nM in series [2].
On the same counts, the results for `N#Cc1cnc2c(c1)C(=O)N(c1cnc(N[C@H]3CC[C@H](Nc4nc5cc(OC(F)F)ccn5n4)C3)c(F)c1)C2` [Example 153] are 12.2 nM and 800 nM.
As to `O=c1ccccn1-c1ccc(N[C@H]2CC[C@H](Nc3nc4cc(C5CC5)ccn4n3)C2)nc1` [Example 427], in series [2], half-maximal inhibition (IC50) was put at 22300 nM.
